Measured values published in US20180147206A1, “ACTIVATION OF NEURONAL STORE-OPERATED CALCIUM ENTRY PATHWAY FOR THE TREATMENT OF ALZHEIMER'S DISEASE” (The Board of Regents of the University of Texas System, priority 2015, published 2018).

Key:
[1] = test system: mushroom spines of hippocampal neurons; assay: Dendritic spine analysis in primary hippocampal neural cultures; format: cell-based, mouse; details: for mushroom spine loss: 30 nM for 16 hours
Procedure: FIGS. 4A-E. NSN21778 and Hyperforin rescue synaptic nSOC and mushroom spine loss in AD hippocampal neurons. (FIG. 4A) Chemical structure of NSN21778 and Hyperforin. (FIG. 4B) Time-course of GCaMP5.3 fluorescence signal changes in the spines of wild-type, PS1KI and APPKI hippocampal neurons. The time of extracellular Ca^2+ re-addition is indicated by a black bar above the traces. 100 μM DHPG was added 50 sec prior to Ca^2+ re-addition. The results are shown for control (CON) neurons and for neurons pretreated with 300 nM NSN21778 (+NSN) or 300 nM Hyperforin (+Hyp) for 30 min as indicated. For each experimental group individual spine (grey) and average (red) fluorescence traces are shown. (FIG. 4C) The average nSOC spine peak amplitude is shown for each group of cells shown on panel B. The mean AF/Fo signals for each group and presented as mean±SE (n≥45 spines). ***, p <0.001. (FIG. 4D) Confocal images of wild-type, PS1KI and APPKI hippocampal neurons transfected with TD-Tomato and fixed at DIV15-16. The images are shown for control neurons (CON) and for neurons treated with 30 nM NSN21778 (+NSN) or 30 nM Hyperforin (+Hyp) for 16 hours prior to fixation. Scale bar is 10 μm. (FIG. 4E) The average fraction of mushroom spines for each group of cells shown on FIG. 4D is presented as mean±SE (n≥18 neurons). ***, p <0.001.
FIGS. 5A-E. TRPC6 is a molecular target for NSN21778 and Hyperforin. (FIGS. 5A-B) Time course of Fura-2 Ca^2+ signals is shown for HEK293 cells transfected with EGFP plasmid (GFP) or combination of EGFP and TRPC6 plasmids (TRPC6). Cells were incubated in ACSF media containing 2 mM Ca^2+. In experiments shown in FIG. 5B, cells were moved to modified ACSF media containing 0.1 mM Ca^2+ for 2 min and then returned to the media containing 2 mM Ca^2+ with addition of 100 μM OAG. The time of addition of 1 μM Hyperforin (Hyp) or NSN21778 (NSN) is indicated by red bars above the Fura-2 traces. For each experimental group individual spine (grey) and average (red) fluorescence traces are shown. (FIG. 5C) The average Ca^2+ influx peak is shown for experiments presented on FIGS. 5A-B as mean±SE (n≥81). (FIG. 5D) Confocal images of wild-type and PS1KI hippocampal neurons transfected with TD-Tomato and fixed at DIV15-16. The neurons were infected with lentiviruses encoding control RNAi (siCtrl), RNAi against TRPC6 (siT6) or RNAi against Orai2 (siO2). The images are shown for no drug treated neurons (CON) and for neurons treated with 30 nM NSN21778 (+NSN) or 30 nM Hyperforin (+Hyp) for 16 hours prior to fixation. Scale bar is 10 μm. No drug treated group of wild-type and PS1KI neurons is from the same experiment as shown on FIG. 2A-J. (FIG. 5E) The average fraction of mushroom spines for each group of cells shown on panel A is presented as mean±SE (n≥19 neurons). ***, p <0.001.
Dendritic Spine Analysis in Primary Hippocampal Neural Cultures. The hippocampal cultures of PS1KI, APPKI and WT mice were established from postnatal day 0-1 pups and maintained in culture as the inventors described previously [Zhang, 2010 #5733]. For assessment of synapse morphology, hippocampal cultures were transfected with TD-Tomato plasmid at DIV7 using the calcium phosphate method and fixed (4% formaldehyde, 4% sucrose in PBS, pH 7.4) at DIV15-16. A Z-stack of optical section was captured using 100× objective with a confocal microscope (Carl Zeiss Axiovert 100M with LSM510). 18-20 cultured neurons from three batches of cultures were used for quantitative analysis per genotype. Quantitative analysis for dendritic spines was performed by using NeuronStudio software package [Rodriguez, 2008 #6276]. To classify the shape of neuronal spines in culture, the inventors adapted an algorithm from published method [Rodriguez, 2008 #6276]. In classification of spine shapes the inventors used the following cutoff values: aspect ratio for thin spines (AR_thin(crio))=2.5, head to neck ratio (HNR(crit))=1.4, and head diameter (HD(crit))=0.5 μm. […]

[2] = Stability in CD-1 mouse plasma; format: in vitro ADME; details: commercial CD-1 mouse plasma; 2 μM
Procedure: FIGS. 12A-D. NSN21778 in vitro metabolism stability, in vivo plasma pharmacokinetics, and side effect on body weight (Related to FIGS. 7A-G). (FIG. 12A) The metabolic stability of NSN21778 was evaluated in vitro after incubation with commercial liver S9 fractions in the presence of phase I (NADPH regenerating system) cofactors. Compound levels were determined by LC-MS/MS. Additionally, the stability of NSN21778 in the presence of commercial CD-1 mouse plasma was measured. (FIG. 12B) NSN21778 was dosed i.p. at 10 mg/kg to female CD-1 mice. Levels of NSN21778 in plasma and brain were evaluated by LC-MS/MS. (FIG. 12C) WTGFP, PS1KIGFP and APPKIGFP mice body weight after i.p. administrated with control solution or 10 mg/kg NSN21778 for 10 weeks. Data presented as mean±SE (n=5 mice). (FIG. 12D) Body weight gained for various treatments.
In vitro metabolism assays. Female ICR/CD-1 mouse S9 fractions were purchased from Celsis/In Vitro Technologies (Baltimore, Md.). 25 μl (0.5 mg) of S9 protein was added to a 15 ml glass screw cap tube. […] The supernatant was analyzed by LC-MS/MS. Stability in commercial mouse CD-1 plasma (Bioreclamation, Westbury, N.Y.) was measured in a similar fashion. […] Reactions were quenched with methanol as above and supernatants evaluated by LC-MS/MS. Compound half-life was determined by the method of substrate depletion as described (McNaney et al., 2008).

Compound: CC(=O)Nc1ccc(CCNc2ncnc3ccc(N)cc23)cc1 [NSN21778, N-{4-[2-(6-Amino-quinazolin-4-ylamino)-ethyl]-phenyl}-acetamide]
- mushroom spines ([1]; PS1KI and APPKI neurons, 30 nM for 16 hr): complete rescue
- mushroom spine loss ([1]; PS1KI cultures infected with control RNAi lentiviruses): rescued mushroom spine loss
- mushroom spine loss ([1]; PS1KI hippocampal neurons following knockdown of TRPC6 or Orai2): failed to rescue mushroom spine loss
- mushroom spine loss ([1]; wild-type neurons with knockdown of TRPC6 or Orai2): failed to rescue
- fraction of mushroom spines ([1]; wild-type neurons, 30 nM for 16 hr): no significant effect
- stability in plasma [2]: stable
